# Results reported in ChEMBL document CHEMBL1201862, “PubChem BioAssay data set” (2004).
# Active and inactive are the calls of the source.
# Legend:
# [1] = target: T1, Polyadenylate-binding protein 1 (Homo sapiens, UniProt P11940); experiment: MLLE binding blockers, Cy5 peptide tracer – biochemical, fluorescence polarization, Cy5-PAM2 peptide, secondary, miRNA deadenylation inhibitor project, dose response (AID 602260); format: functional; conditions: read-out: IC50_Mean
# [2] = target: T1, Polyadenylate-binding protein 1; experiment: MLLE domain peptide-binding blockers, IC50 – biochemical, fluorescence polarization, FITC-PAM2 peptide, dose response (AID 602259); format: functional; conditions: read-out: IC50_Mean
# Cytochrome P450 2C19 = Cytochrome P450 2C19 (Homo sapiens, UniProt P33261); experiment: Cytochrome panel assay with activity outcomes. Panel member name: p450-cyp2c19 Compounds with AC50 equal or less than 10 uM are considered active; format: functional; conditions: read-out: AC50
# Cytochrome P450 3A4 = Cytochrome P450 3A4 (Homo sapiens, UniProt P08684);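 also: CYP3A4 tested as one member of a cytochrome P450 panel screen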
# Cytochrome P450 2C9 = Cytochrome P450 2C9 (Homo sapiens, UniProt P11712)
# HEK293 = experiment: cells; conditions: Homo sapiens;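 also: cells exposed to compound for 14 hours overnight before viability readout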
# Tumor necrosis factor = Tumor necrosis factor (Homo sapiens, UniProt P01375); experiment: analog potency on TNFa NF-kB signaling – cell-based, revised, SAR follow-up (AID 2337); format: functional
# [3] = target: T2, Short transient receptor potential channel 4 (Mus musculus, UniProt Q9QUQ5); experiment: block of DAMGO-driven TRPC4 calcium entry – cell-based, HEK293 TRPC4/mu-opioid, Fluo-4 calcium, dose response (AID 434942); format: functional;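 also: potency of inhibitors blocking the TRPC4 calcium response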
# T2 sequence (Q9QUQ5 whole entry): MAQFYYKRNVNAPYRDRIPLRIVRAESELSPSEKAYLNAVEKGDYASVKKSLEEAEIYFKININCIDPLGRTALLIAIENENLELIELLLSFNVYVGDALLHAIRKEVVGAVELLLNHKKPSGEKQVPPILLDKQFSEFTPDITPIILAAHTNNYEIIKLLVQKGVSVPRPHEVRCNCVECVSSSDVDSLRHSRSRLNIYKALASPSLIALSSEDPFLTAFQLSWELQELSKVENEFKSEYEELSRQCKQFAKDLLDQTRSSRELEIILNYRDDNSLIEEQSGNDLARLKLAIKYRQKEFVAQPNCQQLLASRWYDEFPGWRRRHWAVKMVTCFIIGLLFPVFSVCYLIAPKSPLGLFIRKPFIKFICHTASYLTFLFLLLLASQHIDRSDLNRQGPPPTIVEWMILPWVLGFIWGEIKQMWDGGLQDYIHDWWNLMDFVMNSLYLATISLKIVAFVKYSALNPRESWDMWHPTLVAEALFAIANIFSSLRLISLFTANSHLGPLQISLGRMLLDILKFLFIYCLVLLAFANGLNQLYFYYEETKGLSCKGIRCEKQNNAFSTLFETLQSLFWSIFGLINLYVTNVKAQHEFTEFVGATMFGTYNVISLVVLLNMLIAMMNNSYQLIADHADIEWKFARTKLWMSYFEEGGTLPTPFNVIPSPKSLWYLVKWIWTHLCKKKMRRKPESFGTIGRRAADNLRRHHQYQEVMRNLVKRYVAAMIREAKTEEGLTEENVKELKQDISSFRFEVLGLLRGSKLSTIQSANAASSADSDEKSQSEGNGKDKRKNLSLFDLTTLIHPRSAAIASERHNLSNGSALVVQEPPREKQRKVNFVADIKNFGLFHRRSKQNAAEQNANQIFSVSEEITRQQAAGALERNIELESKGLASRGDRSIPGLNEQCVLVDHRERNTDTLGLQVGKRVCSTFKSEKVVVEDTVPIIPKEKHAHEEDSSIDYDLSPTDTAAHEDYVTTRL
# [4] = intracellular Trypanosoma cruzi inhibitors in host cells – cell-based, plate reader, cherry-pick samples, set 3, dose response (AID 651818); format: functional;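 also: compounds incubated with infected cells for about four days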
# [5] = blockers of HIV-1 envelope-mediated cell-cell fusion – cherry-pick, dose response (AID 652057); format: functional, cell-based
# [6] = blockers of HIV-1 ZM109 envelope-driven cell-cell fusion – HeLa effector, CEM target cells, luciferase, cherry-pick, dose response (AID 652058); format: functional, cell-based;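 also: luciferase signal from HIV-1 Env mediated cell-cell fusion of effector and target cells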
# [7] = HIV-1 AD8 envelope cell-cell fusion blockers – cherry-pick, dose response (AID 652062); format: functional, cell-based;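 also: luciferase signal from cell-cell fusion driven by HIV-1 clade B AD8 Env; potency is for inhibitors of fusion seen as a drop in luminescence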
# [8] = viability loss in CEM21 cells – cell-based, CellTiter-Glo luminescence, cherry-picked, cytotoxicity control for viral fusion inhibitor project, dose response (AID 652042); format: functional;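 also: potency for signal decrease meaning cytotoxicity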
# Streptococcus = experiment: GAS UMAA2166 growth inhibition – luminescence, BacTiterGlo, counter-screen for streptokinase expression inhibitor project, dose response (AID 1915); format: functional, organism-based;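 also: potency for reduction of bacterial viability or growth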
# Streptokinase A = target: T3, Streptokinase A (Streptococcus pyogenes serotype M1, UniProt P10520); experiment: viability-normalized secreted streptokinase activity reduction – plasminogen activation absorbance, OD405, dose response (AID 1914); format: functional, Streptococcus pyogenes M1 GAS;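 also: secreted streptokinase activity via plasminogen activation per viability signal from cell pellet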
# T3 sequence (P10520 whole entry): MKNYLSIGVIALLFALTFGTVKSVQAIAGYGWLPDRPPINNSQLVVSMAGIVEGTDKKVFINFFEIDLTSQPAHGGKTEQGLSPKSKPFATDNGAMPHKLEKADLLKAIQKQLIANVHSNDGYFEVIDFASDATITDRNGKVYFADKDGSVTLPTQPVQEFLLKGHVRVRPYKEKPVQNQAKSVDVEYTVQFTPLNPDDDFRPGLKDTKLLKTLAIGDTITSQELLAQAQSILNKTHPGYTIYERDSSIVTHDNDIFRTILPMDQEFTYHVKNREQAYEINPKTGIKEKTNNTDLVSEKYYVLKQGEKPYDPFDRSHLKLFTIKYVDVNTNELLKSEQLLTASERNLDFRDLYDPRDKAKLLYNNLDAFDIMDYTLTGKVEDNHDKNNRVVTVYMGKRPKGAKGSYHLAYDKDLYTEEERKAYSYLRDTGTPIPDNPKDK
# [9] = off-target signal loss in HeLa-CEM21 co-culture – HeLa F-luc CTL cells, cherry-picked, counter-screen for HIV-1 Env fusion inhibitor project, dose response (AID 652040); format: functional, cell-based;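 also: potency for signal decrease marking cytotoxic or nonspecific inhibition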
# [10] = tested on: Streptococcus sp. 'group A'; experiment: Streptococcus pyogenes SK(-)GAS viability under kanamycin – luminescence, BacTiterGlo, confirmation, counter-screen for streptokinase expression inhibitor project, dose response (AID 1900); format: functional, organism-based
# Cytochrome P450 1A2 = target: T4, Cytochrome P450 1A2 (Homo sapiens, UniProt P05177);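 also: PubChem cytochrome P450 panel assay, CYP1A2 panel member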
# T4 sequence (P05177 whole entry): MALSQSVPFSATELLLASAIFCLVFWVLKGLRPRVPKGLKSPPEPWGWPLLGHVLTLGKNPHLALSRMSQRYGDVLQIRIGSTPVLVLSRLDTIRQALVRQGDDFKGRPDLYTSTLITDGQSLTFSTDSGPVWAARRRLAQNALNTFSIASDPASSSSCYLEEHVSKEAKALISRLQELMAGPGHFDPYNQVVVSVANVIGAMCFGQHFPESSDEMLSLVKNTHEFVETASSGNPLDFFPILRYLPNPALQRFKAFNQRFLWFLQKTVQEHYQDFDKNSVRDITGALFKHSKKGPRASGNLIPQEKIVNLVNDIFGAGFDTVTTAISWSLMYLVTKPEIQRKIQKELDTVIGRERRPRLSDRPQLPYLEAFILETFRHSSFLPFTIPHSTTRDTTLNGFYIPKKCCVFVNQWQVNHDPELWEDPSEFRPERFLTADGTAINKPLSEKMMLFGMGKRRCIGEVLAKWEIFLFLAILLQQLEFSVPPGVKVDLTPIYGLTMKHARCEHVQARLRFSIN
# T1 sequence (P11940 whole entry, the tested form may be a part): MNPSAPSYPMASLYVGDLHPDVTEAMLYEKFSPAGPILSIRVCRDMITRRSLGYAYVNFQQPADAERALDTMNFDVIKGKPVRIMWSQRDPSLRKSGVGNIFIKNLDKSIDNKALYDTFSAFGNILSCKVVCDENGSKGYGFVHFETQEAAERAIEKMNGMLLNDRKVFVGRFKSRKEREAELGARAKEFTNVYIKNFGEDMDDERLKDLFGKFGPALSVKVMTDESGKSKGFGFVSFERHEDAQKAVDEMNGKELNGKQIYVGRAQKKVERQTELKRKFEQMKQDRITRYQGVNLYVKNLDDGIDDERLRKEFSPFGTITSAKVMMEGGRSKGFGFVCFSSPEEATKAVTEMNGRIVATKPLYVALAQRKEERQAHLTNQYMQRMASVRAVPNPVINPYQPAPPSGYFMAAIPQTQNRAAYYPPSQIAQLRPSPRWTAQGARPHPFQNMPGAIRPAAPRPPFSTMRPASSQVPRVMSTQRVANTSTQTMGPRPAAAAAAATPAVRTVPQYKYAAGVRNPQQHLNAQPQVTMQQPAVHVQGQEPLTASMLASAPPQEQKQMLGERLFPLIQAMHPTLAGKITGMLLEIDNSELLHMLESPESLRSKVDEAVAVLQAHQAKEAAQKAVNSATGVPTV
# Sequence of Cytochrome P450 2C9 (P11712 whole entry): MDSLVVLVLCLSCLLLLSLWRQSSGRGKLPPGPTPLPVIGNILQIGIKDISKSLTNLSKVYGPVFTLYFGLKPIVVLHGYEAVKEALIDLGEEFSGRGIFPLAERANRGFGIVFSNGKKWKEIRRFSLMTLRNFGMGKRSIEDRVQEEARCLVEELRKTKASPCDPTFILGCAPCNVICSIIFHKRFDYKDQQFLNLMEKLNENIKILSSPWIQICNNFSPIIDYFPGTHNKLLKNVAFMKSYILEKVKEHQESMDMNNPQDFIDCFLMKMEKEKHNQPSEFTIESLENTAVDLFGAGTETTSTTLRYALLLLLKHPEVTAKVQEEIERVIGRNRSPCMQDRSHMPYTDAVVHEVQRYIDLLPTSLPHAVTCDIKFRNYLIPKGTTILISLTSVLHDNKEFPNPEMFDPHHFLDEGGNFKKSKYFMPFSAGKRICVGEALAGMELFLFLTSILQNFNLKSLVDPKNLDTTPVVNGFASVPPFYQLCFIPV
# Sequence of Cytochrome P450 2C19 (P33261 whole entry): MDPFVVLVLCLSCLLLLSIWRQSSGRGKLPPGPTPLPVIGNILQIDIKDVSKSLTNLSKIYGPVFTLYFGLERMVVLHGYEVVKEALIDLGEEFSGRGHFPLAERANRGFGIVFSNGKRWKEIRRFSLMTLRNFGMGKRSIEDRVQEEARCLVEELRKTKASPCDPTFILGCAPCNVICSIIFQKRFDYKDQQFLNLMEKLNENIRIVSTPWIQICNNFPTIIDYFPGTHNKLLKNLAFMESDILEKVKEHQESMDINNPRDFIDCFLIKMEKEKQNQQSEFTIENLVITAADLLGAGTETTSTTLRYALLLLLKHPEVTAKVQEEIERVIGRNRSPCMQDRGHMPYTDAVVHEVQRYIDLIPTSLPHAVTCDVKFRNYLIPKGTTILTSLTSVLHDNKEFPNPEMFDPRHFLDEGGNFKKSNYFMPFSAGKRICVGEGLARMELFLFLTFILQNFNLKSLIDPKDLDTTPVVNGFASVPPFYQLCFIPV
# Sequence of Tumor necrosis factor (P01375 whole entry): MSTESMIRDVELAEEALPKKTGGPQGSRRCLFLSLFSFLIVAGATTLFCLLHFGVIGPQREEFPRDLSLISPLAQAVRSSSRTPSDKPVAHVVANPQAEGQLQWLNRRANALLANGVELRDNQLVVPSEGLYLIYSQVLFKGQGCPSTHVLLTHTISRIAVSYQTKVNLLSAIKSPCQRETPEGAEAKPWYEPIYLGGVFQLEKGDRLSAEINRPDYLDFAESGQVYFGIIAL
# Sequence of Cytochrome P450 3A4 (P08684 whole entry): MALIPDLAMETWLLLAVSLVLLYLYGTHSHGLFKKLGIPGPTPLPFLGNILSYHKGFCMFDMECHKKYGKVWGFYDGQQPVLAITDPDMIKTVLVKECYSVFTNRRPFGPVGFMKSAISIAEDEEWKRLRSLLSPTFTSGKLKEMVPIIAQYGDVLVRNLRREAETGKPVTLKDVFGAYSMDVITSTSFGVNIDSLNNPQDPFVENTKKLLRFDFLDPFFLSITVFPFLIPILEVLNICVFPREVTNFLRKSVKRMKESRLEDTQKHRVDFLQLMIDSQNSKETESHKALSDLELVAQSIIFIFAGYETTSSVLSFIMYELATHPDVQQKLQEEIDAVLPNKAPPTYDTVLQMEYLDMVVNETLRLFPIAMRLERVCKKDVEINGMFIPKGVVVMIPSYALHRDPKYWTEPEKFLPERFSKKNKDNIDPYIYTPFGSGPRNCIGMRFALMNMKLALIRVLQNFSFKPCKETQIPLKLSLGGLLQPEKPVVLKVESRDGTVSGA
smiles,measurement,setting,value
CN1CCN(C2=C(Cl)C(=O)N(CCc3ccccc3)C2=O)CC1,IC50,[1],> 66 µM (inactive)
same,IC50,[2],49.1 µM (inactive)
COc1ccc(S(=O)(=O)N2CCC[C@H]2C(=O)NC2=NCCS2)cc1,AC50,Cytochrome P450 2C19,35.5 µM (inconclusive)
same,AC50,Cytochrome P450 3A4,17.8 µM (inconclusive)
same,AC50,Cytochrome P450 2C9,inconclusive
CC(=O)N1CCc2cc(S(=O)(=O)N3CCN(c4ccc(Cl)cc4)CC3)ccc21,IC50,HEK293,> 20 µM (inactive)
same,IC50,Tumor necrosis factor,> 20 µM (inactive)
CCOC(=O)C1(Cc2cccc(OC)c2)CCN(Cc2ccc(OC)c(O)c2)CC1,EC50,[3],0.944 µM (active)
CC1(C)CC2=Nc3ccccc3NC(c3ccccc3F)C2=C(O)C1 (centres undefined),IC50,[1],> 66 µM (inactive)
same,IC50,[2],> 66 µM (inactive)
Cc1noc(C)c1S(=O)(=O)Nc1ccc2c(c1)CC(=O)N([C@H](C)CO)C[C@@H](C)[C@@H](CN(C)Cc1ccc(C(=O)Nc3ccccc3N)cc1)O2,AC50,[4],3.1 µM (active)
Cc1noc(C)c1S(=O)(=O)Nc1ccc2c(c1)CC(=O)N([C@H](C)CO)C[C@@H](C)[C@H](CN(C)Cc1ccc(Cl)c(Cl)c1)O2,AC50,[4],6.32 µM (active)
Cc1ccc(S(=O)(=O)Nc2ccc3c(c2)CC(=O)N([C@@H](C)CO)C[C@@H](C)[C@@H](CN(C)Cc2ccc(-c4ccccc4)cc2)O3)cc1,AC50,[4],3.03 µM (active)
C[C@H]1CN([C@@H](C)CO)C(=O)c2cccc(NS(=O)(=O)c3ccccc3)c2O[C@H]1CN(C)Cc1ccc(Oc2ccccc2)cc1,AC50,[4],6.61 µM (active)
C[C@@H]1CCCCO[C@H](CN(C)CC2CCCCC2)[C@@H](C)CN([C@H](C)CO)C(=O)c2cc(NC(=O)Nc3ccc(F)cc3)ccc2O1,AC50,[4],2.33 µM (active)
COc1ccc(CNC(=O)N(C)C[C@H]2OCc3ccccc3-c3c(n(C)c4ccccc34)C(=O)N([C@H](C)CO)C[C@@H]2C)cc1,AC50,[5],< 0.26 µM (active)
same,AC50,[6],< 0.26 µM (active)
same,AC50,[7],< 0.26 µM (active)
same,AC50,[8],60.8 µM (active)
CN1CC(c2ccc(Cl)c(Cl)c2)[C@@]2(COc3ccccc3C2=O)[C@@]12C(=O)Nc1ccccc12 (some centres undefined),AC50,[5],9.06 µM (active)
same,EC50,Streptococcus,> 150 µM (not active)
same,AC50,[6],9.1 µM (active)
same,EC50,Streptokinase A,1.55 µM (active)
same,AC50,[7],31.3 µM (active)
same,AC50,[9],14.7 µM (active)
same,EC50,[10],2.96 µM (active)
same,AC50,[8],45.7 µM (active)
COc1ccc(CNc2ncnc3ccc(-c4ccccc4CN(C)C)cc23)c(OC)c1,AC50,Cytochrome P450 1A2,31.6 µM (inconclusive)
same,AC50,Cytochrome P450 2C9,inconclusive
